From patent US5773424A, “Treatment of toxoplasmosis” (priority 1994, dated 1998)
Read-outs that look alike come from different tables or passages of the source.

Molecular target: T. gondii adenosine kinase (Toxoplasma gondii, UniProt Q9TVW2)
Assay: biochemical
Settings: for inhibition at 1000 µM: read-out: Inhibition of T. gondii adenosine kinase; for Decrease in binding to T. gondii adenosine kinase: relative to reference compound adenosine
Method: Preparation of cytosol extracts. For the structure activity relationships studies, approximately 5×10^8 T. gondii were suspended in 1.2 ml of 50 mM N-2-hydroxyethylpiperazine-N'-2-ethanesulfonic acid (HEPES)-Cl (pH 8.0)/1 mM dithiothreitol and homogenized for 30 seconds at setting 10, using a Brinnmann Instruments Polytron homogenizer fitted with a PTA 7K1 probe. The homogenate was then centrifuged at approximately 116,000 g for 1 hour at 5° and the supernatant (cytosol extract) collected and used as the enzyme source. Fresh cytosol extracts were prepared for each experiment.
Adenosine kinase assay. T. gondii adenosine kinase activity was measured by following the formation of [^14 C]AMP from [^14 C]adenosine and ATP. […] Therefore, the standard reaction mixture contained 50 mM HEPES-Cl (pH 8.0), 1 mM dithiothreitol, 5 μM [8-^14 C]adenosine (45 Ci/mol), 0.5 mM ATP, 0.5 mM MgCl2, 25 μM (+)-EHNA or 100 μM (±)-EHNA,10-30 μl of cytosol extract (approximately 3-10 μg of protein), and either 0, 0.1, 0.25, 0.5 or 1.0 mM of the compound to be tested, in a final volume of 150 μl.
Reactions were started by the addition of [8-^14 C]adenosine, incubated at 37° for 10 minutes and terminated by placing the reaction tubes in a boiling water bath for 2 minutes. Precipitated proteins were removed by centrifugation in a microcentrifuge (approximately 13,000 g) for 5 minutes, and a 15 μl aliquot of the resulting supernatant was mixed with 5 μl of a solution containing 10 mM each of AMP and adenosine. This mixture was then spotted on silica gel thin layer chromatography plates which were developed with a mixture of chloroform/methanol/acetic acid (16:3:1). […] The substrate and product spots (which accounted for all of the radioactivity on the plates) were identified by UV quenching, cut out, and the radioactivity quantitated by liquid scintillation counting in 20 ml of Scintilene, using a Packard 460 scintillation counter. […] Enzyme velocity was calculated by multiplying the fraction of AMP formed from adenosine times the amount of adenosine in the assay, and dividing by the incubation time.
Determination and significance of AppKi values. AppKi values were used to determine the relative degree of binding of compounds to adenosine kinase as compared to adenosine. AppKi values were estimated from Dixon plots of the data (1/.nu. versus [I]), using a computer program with least squares fitting according to the general principles of Cleland (Cleland, W W, The statistical analysis of enzyme kinetic data. Adv. Enzymol. 29:1-32, 1967). The program was written by Dr. Sungman Cha (Brown University, Providence, R.I.) and modified to fit IBM BASIC by Dr. Fardos N. M. Naguib. […] It should be noted, however, that the type of inhibition (i.e., competitive, noncompetitive, or uncompetitive) produced by the compounds was not determined, nor were the compounds evaluated as substrates for T. gondii adenosine kinase.

[1] = AppKi for inhibition of T. gondii adenosine kinase, 5 μM adenosine, ± range, at least two estimations

T. gondii adenosine kinase, sequence (Q9TVW2 whole entry): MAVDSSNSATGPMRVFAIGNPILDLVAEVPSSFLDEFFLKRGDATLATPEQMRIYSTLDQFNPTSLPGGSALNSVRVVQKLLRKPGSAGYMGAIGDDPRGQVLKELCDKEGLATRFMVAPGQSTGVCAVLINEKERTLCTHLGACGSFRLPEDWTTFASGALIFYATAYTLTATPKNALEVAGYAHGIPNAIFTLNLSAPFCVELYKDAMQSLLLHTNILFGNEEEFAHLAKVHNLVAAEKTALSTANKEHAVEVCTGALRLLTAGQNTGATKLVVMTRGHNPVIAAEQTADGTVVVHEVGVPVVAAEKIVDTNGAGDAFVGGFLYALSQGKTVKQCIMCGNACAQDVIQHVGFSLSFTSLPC

Question: Which Ki does the source give for `OC[C@H]1O[C@@H](n2cc(Br)c3c(NO)ncnc32)[C@H](O)[C@@H]1O` [Compound 70, N^6 -Hydroxy-7-bromo-7-deazaadenosine] here?
Answer: 37 ± 9 µM

Question: `OC[C@H]1O[C@@H](n2cnc3ccccc32)[C@H](O)[C@@H]1O` [Compound 84, Benzimidazole riboside ("1,3-dideazapurine riboside")] was tested. Which inhibition at 1000 µM did it give?
Answer: < 10%

Question: How did the Ki turn out when `OC[C@H]1O[C@@H](n2cnc3c(NCc4ccco4)ncnc32)[C@H](O)[C@@H]1O` [Compound 38] was run?
Answer: 180 ± 10 µM

Question: `Nc1nc(NC2C=C(CO)C(O)C2O)c([N+](=O)[O-])c(=O)[nH]1` (centres unmarked) [Compound 127, 2-Amino-4-(3-hydroxymethyl-4,5-dihydroxy-2-cyclopenten-1-yl)aminto-1,6-dihydro-5-nitro-6-oxopyrimidine] was tested. Which Ki did it give?
Answer: 940 ± 110 µM

Question: `Nc1ncnc2c1ncn2[C@@H]1O[C@H](CCl)[C@@H](O)[C@H]1O` [Compound 95, 5'-Chloro-5'-deoxyadenosine] was tested. Which Ki did it give?
Answer: 210 ± 10 µM

Question: Which Ki does the source give for `OC[C@H]1O[C@@H](n2cnc3c(Nc4ccccc4)ncnc32)[C@H](O)[C@@H]1O` [Compound 43] here?
Answer: 88 ± 12 µM

Question: Which inhibition at 1000 µM does the source give for `Nc1ncnc(NC2C=C(CO)C(O)C2O)c1[N+](=O)[O-]` (centres unmarked) [Compound 125, 4-(3-Hydroxymethyl-4,5-dihydroxy-2-cyclopenten-1-yl)amino-5-nitro-6-aminopyrimidine] here?
Answer: < 10%

Question: With `C[C@H](Cc1ccccc1)Nc1ncnc2c1ncn2[C@@H]1O[C@H](CO)[C@@H](O)[C@H]1O` [Compound 49] as the molecule, how does the Ki read?
Answer: 750 ± 30 µM

Question: For `Nc1ncnc2c1ncn2[C@@H]1O[C@H](COC(=O)CCC(=O)O)[C@@H](O)[C@H]1O` [Compound 100, 5'-Succinyladenosine (adenosine 5'-succinate)], which Ki is on record?
Answer: 920 ± 600 µM

Question: With `Nc1ncnc2c1ncn2[C@@H]1C=C(CO)[C@@H](O)[C@H]1O` [Compound 114, Neplanocin A] as the molecule, how does the Ki read?
Answer: 37 ± 10 µM

Question: What about the “Decrease in binding to T. gondii adenosine kinase” value (shortened to “Decrease in binding”) of the same molecule?
Answer: 5.3 fold

Question: For `Nc1ncnc2c1cnn2[C@@H]1O[C@H](CO)[C@@H](O)[C@H]1O` [Compound 72, 8-Aza-7-deazaadenosine], which Ki is on record?
Answer: 1700 µM

Question: For `NC(=O)c1cn([C@@H]2O[C@H](CO)[C@@H](O)[C@H]2O)c2nc[n+]([O-])c(N)c12` [Compound 80, 7-Carboxamido-7-deazaadenosine-N^1-oxide], which Ki is on record?
Answer: 780 ± 70 µM

Question: Which Ki (read-out: AppKi for inhibition of T. gondii adenosine kinase, 5 μM adenosine, ± range, at least two estimations) does the source give for `Nc1ncnc2c1ncn2C1O[C@H](CO)[C@H](O)[C@@H]1O` (some centres unmarked) [Compound 107, Adenine lyxoside] here?
Answer: 1300 µM

Question: What about the “Decrease in binding” value of the same molecule?
Answer: 190 fold

Question: How did the Ki turn out when `C/C(=C\CNc1ncnc2c1ncn2[C@@H]1O[C@H](CO)[C@@H](O)[C@H]1O)CO` [Compound 34] was run?
Answer: 280 ± 20 µM

Question: `OC[C@H]1O[C@@H](n2cnc3c(NCc4ccccc4)ncnc32)[C@H](O)[C@@H]1O` [Compound 45] was tested. Which Ki did it give?
Answer: 100 ± 30 µM

Question: `O=c1[nH]c(=O)c2ncn([C@@H]3O[C@H](CO)[C@@H](O)[C@H]3O)c2[nH]1` [Compound 67] was tested. Which inhibition at 1000 µM did it give?
Answer: < 10%

Question: Which Ki does the source give for `NC(=NO)c1c(Br)n([C@@H]2O[C@H](CO)[C@@H](O)[C@H]2O)c2ncnc(N)c12` [Compound 73, 8-Bromo-7-carboxyamidoxime-7-deazaadenosine] here?
Answer: 210 ± 30 µM

Question: For `CSC[C@H]1O[C@@H](n2cnc3c(N)ncnc32)[C@H](O)[C@@H]1O` [Compound 98, 5'-Methylthio-5'-deoxyadenosine], which Ki is on record?
Answer: 530 ± 230 µM

Question: For `O=C(Nc1ncnc2c1ncn2[C@@H]1O[C@H](CO)[C@@H](O)[C@H]1O)c1ccccc1` [Compound 44], which Ki is on record?
Answer: 23 ± 1 µM

Question: With `CCCCCCC(C(C)O)n1cnc2c(N)ncnc21` (racemic) [Compound 113, (±)-EHNA] as the molecule, how does the inhibition at 1000 µM read?
Answer: < 10%

Question: How did the inhibition at 1000 µM turn out when `Nc1ccnc2c1ncn2[C@@H]1O[C@H](CO)[C@@H](O)[C@H]1O` [Compound 5] was run?
Answer: < 10%

Question: How did the inhibition at 1000 µM turn out when `CCNC(=O)[C@H]1O[C@@H](n2cnc3c(N)ncnc32)[C@H](O)[C@@H]1O` [Compound 103, 5'-N-(Ethyl)carboxamidoadenosine] was run?
Answer: < 10%

Question: With `CCCCNc1ncnc2c1ncn2[C@@H]1O[C@H](CO)[C@@H](O)[C@H]1O` [Compound 32] as the molecule, how does the Ki read?
Answer: 220 ± 90 µM

Question: How did the Ki [1] turn out when `O=[N+]([O-])c1ccc(CSc2ncnc3c2ncn3[C@@H]2O[C@H](CO)[C@@H](O)[C@H]2O)cc1` [Compound 21] was run?
Answer: 140 ± 10 µM

Question: `CC(=O)OC[C@H]1O[C@@H](n2cnc3c(N)ncnc32)[C@H](O)[C@@H]1OC(C)=O` [Compound 110, 3',5'-Di-O-acetyladenosine] was tested. Which inhibition at 1000 µM did it give?
Answer: < 10%

Question: How did the Ki [1] turn out when `O=[N+]([O-])c1ccc(C[Se]c2ncnc3c2ncn3[C@@H]2O[C@H](CO)[C@@H](O)[C@H]2O)cc1` [Compound 24] was run?
Answer: 84 ± 46 µM

Question: Which Ki [1] does the source give for `Nc1ncnc2c1ncn2[C@@H]1O[C@H](CI)[C@@H](O)[C@H]1O` [Compound 96, 5'-Iodo-5'-deoxyadenosine] here?
Answer: 230 ± 10 µM

Question: Which Ki does the source give for `CCCCCCCCCCNc1ncnc2c1ncn2[C@@H]1O[C@H](CO)[C@@H](O)[C@H]1O` [Compound 42] here?
Answer: 380 ± 130 µM

Question: With `Nc1ncnc2c1ncn2[C@@H]1O[C@H](COS(=O)(=O)O)[C@@H](O)[C@H]1O` [Compound 97, 5'-Sufonyl adenosine (adenosine 5'-monosulfate)] as the molecule, how does the Ki [1] read?
Answer: 210 ± 60 µM

Question: `NC(=NO)c1cn([C@@H]2O[C@H](CO)[C@@H](O)[C@H]2O)c2ncnc(N)c12` [Compound 56] was tested. Which Ki did it give?
Answer: 200 ± 6 µM

Question: With `OC[C@H]1O[C@@H](n2cnc3cccnc32)[C@H](O)[C@@H]1O` [Compound 61] as the molecule, how does the inhibition at 1000 µM read?
Answer: < 10%

Question: `Nc1nc2c(ncn2[C@@H]2O[C@H](CO)[C@@H](O)[C@H]2F)c(=O)[nH]1` [Compound 121, 2'-Fluoro-2'-deoxyguanosine] was tested. Which inhibition at 1000 µM did it give?
Answer: < 10%

Question: Which inhibition at 1000 µM does the source give for `CO[C@H]1[C@@H](O)[C@H](n2cnc3c(N)ncnc32)O[C@@H]1CO` [Compound 91, 3'-O-Methyladenosine] here?
Answer: < 10%

Question: And the “Effect on binding to T. gondii adenosine kinase, in words” value (relative to adenosine)?
Answer: abolishes

Question: For `C[C@H]1O[C@@H](n2cnc3c(N)ncnc32)[C@H](O)[C@@H]1O` [Compound 93, 5'-Deoxyadenosine], which Ki is on record?
Answer: 40 ± 3 µM

Question: What about the “Decrease in binding” value of the same molecule?
Answer: 5.7 fold

Question: `Nc1ncnc2c1ncn2[C@H]1O[C@@H](CO)[C@H](O)[C@@H]1O` [Compound 2] was tested. Which inhibition at 1000 µM did it give?
Answer: < 10%

Question: `O=c1[nH]cnc(NC2C=C(CO)C(O)C2O)c1[N+](=O)[O-]` (centres unmarked) [Compound 126, 4-(3-Hydroxymethyl-4,5-dihydroxy-2-cyclopenten-1-yl)amino-1,6-dihydro-5-nitro-6-oxopyrimidine] was tested. Which inhibition at 1000 µM did it give?
Answer: < 10%

Question: For `CN(C)c1ncnc2c1ncn2[C@@H]1O[C@H](CO)[C@@H](N)[C@H]1O` [Compound 119, N^6 -Dimethyl-3'-amino-3'-deoxyadenosine], which Ki [1] is on record?
Answer: 540 ± 80 µM

Question: `Nc1ncnc2c1ncn2[C@@H]1O[C@H](C(=O)NC2CC2)[C@@H](O)[C@H]1O` [Compound 104, 5'-N-(Cyclopropyl)carboxamidoadenosine] was tested. Which Ki [1] did it give?
Answer: 1100 µM

Question: How did the Ki [1] turn out when `N#Cc1cn([C@@H]2O[C@H](CO)[C@@H](O)[C@H]2O)c2ncnc(N)c12` [Compound 54, 7-Cyano-7-deazaadenosine (Toyocamycin)] was run?
Answer: < 60 µM

Question: How did the Ki turn out when `Nc1nc(Cl)c2ncn([C@@H]3O[C@H](CO)[C@@H](O)[C@H]3O)c2n1` [Compound 63] was run?
Answer: 1800 µM

Question: For `Nc1nc(F)nc2c1ncn2[C@@H]1O[C@H](CO)[C@@H](O)[C@H]1O` [Compound 8], which Ki [1] is on record?
Answer: 3000 µM

Question: For `Nc1ncnc2c1ccn2[C@@H]1O[C@H](CO)[C@@H](O)[C@H]1O` [Compound 51], which Ki [1] is on record?
Answer: 340 ± 80 µM

Question: Which Ki does the source give for `CCCCCCNc1ncnc2c1ncn2[C@@H]1O[C@H](CO)[C@@H](O)[C@H]1O` [Compound 39] here?
Answer: 76 ± 4 µM

Question: Which Ki does the source give for `Nc1ncnc2c1ncn2[C@@H]1O[C@H](CO)C[C@H]1O` [Compound 90, 3'-Deoxyadenosine (Cordycepin)] here?
Answer: 1100 µM

Question: `O=c1[nH]cnc2c([C@@H]3O[C@H](CO)[C@@H](O)[C@H]3O)n[nH]c12` [Compound 82, 8-Aza-9-deazainosine (formycin B)] was tested. Which Ki did it give?
Answer: 3100 µM

Question: How did the Ki turn out when `OC[C@H]1O[C@@H](n2cnc3c(I)ncnc32)[C@H](O)[C@@H]1O` [Compound 14] was run?
Answer: 18 ± 1 µM

Question: Which inhibition at 1000 µM does the source give for `OC[C@H]1O[C@@H](n2ncc3c(=S)[nH]cnc32)[C@H](O)[C@@H]1O` [Compound 78, 8-Aza-6-mercapto-7-deazapurine riboside] here?
Answer: < 10%

Question: Which Ki [1] does the source give for `N#Cc1cn([C@@H]2O[C@H](CO)[C@@H](O)[C@H]2O)c2ncnc(N)c12` [Compound 54] here?
Answer: 21 ± 2 µM

Question: For `Nc1nc2c(ncn2[C@@H]2O[C@H](CO)[C@@H](O)[C@H]2O)c(=O)[nH]1` [Compound 64], which inhibition at 1000 µM is on record?
Answer: < 10%
